Patent publication US11970708B2, “Gene therapy vector with minimizing recombination, recombinant retrovirus comprising the vector, and pharmaceutical composition for preventing or treating cancer comprising the recombinant retrovirus” (ARTICURE INC., priority 2020, dated 2024)

How the values were obtained:
U87MG cells = experiment: Western blotting of thymidine kinase (TK) and yeast cytosine deaminase (yCD) protein in infected cells; type: cell-based, human
Method: After 3 days of initial infection, p1(passage 1)˜p10 cells were harvested and resuspended in 100 ? of T-PER tissue extraction agent (PIERCE, 78510)+1× proteinase inhibitor. Thereafter, the cells were broken by freezing-thawing three times, and the cytoplasmic supernatant was recovered by centrifugation at 13,000 rpm for 10 minutes. After quantifying the protein amount using BCA, 20 μg of cell lysate was taken and mixed with SDS sample loading dye to 1%. After reacting for 5 minutes in a 100° C. heat block, the reaction mixture was moved to ice and reacted for 2 minutes. Then, the reactant was loaded on 10% (TK) or 13.5% (yCD) SDS-PAGE gel, followed by electrophoresis. Upon completion of the electrophoresis, the protein was transferred to a NC (nitrocellulose) membrane at 90 V for 2 hours, and then put into a blocking solution (5% skim milk in 1X TBS-T), followed by reaction at room temperature for 1 hour. […] Then, the membrane was washed 4 times with 1× TBS-T at room temperature for 10 minutes, reacted in an ECL (enhanced chemiluminescence, Bio-rad Cat No. 170-5062) solution, and then analyzed in a chemiluminescence imaging system (ChemiDoc, Biorad CA). […]

U-87MG cells [1] = experiment: Cell death of virus-infected cells upon prodrug (GCV, 5-FC) treatment, optical microscope; parameters: species or system human; conditions: MuLV env-based vectors, FIG. 16
U-87MG cells [2] = experiment: as above; parameters: species or system human; conditions: GaLV env-based vectors; prodrugs GCV 30 μg/ and 1 mM 5-FC; FIG. 12
Method: Specifically, the spRRVe-TK/sRRVgp-sEF1α-hopt-yCD virus was co-transfected into the 293T cell line using PLUS reagent (Invitrogen) and lipofectamine (Invitrogen). After 2 days, the supernatant of the virus was recovered, and U-87MG cells passaged in a 6-well plate at the density of 1.5×10^5 cells/well the previous day were infected with the virus and polybran at a concentration of 8 μg/ ? for 8 hours. Five days after infection (postinfection 5d), the cell supernatant was taken and re-infected to U-87MG cells passaged in a 6-well plate at the density of 1.5×10^5 cells/well the previous day (p1), and then sequentially infected up to p4 in the same way. Cells at each stage of infection were treated with trypsin-EDTA to make single cells, and passaged in a 12-well plate at the density of 1.5×10^5 cells/well, and from the next day after the passage, 30 μg/ ? of GCV and 1 mM 5-FC were treated for […], respectively, to confirm cell death.
Specifically, the virus containing spRRVe-F4-hopt-yCD/sRRVgp-TK, spRRVe-F4-hopt-yCD/sRRVgp-F1-TK, spRRVe-F4-hopt-yCD/sRRVgp-F2-TK, spRRVe-F4-hopt-yCD/sRRVgp-F3-TK and spRRVe-F4-hopt-yCD/sRRVgp-F4-TK was co-transfected into the 293T cell line using PLUS reagent (Invitrogen) and lipofectamine (Invitrogen). […]

[3] = system: brain tumor cell line U87MG; experiment: Recombination type analysis by genomic DNA PCR after serial virus infection (passages); type: cell-based, human; conditions: spRRVe-yCD/sRRVgp-TK virus
Method: After 3 days of initial infection, the cultured supernatant was taken and re-infected to new U87MG, and the infected U87MG cell line was recovered and genomic DNA was isolated.
The replicating-retrovirus vector for gene therapy is highly likely to cause recombination because the size of genomic RNA is increased by the introduced foreign gene and non-homologous sequences are added. Therefore, in order to construct an efficient and stable replicating-retrovirus vector for gene therapy, it is very important to confirm the presence and degree of recombination at the development stage.
Specifically, polymerase chain reaction was performed using the primers listed in Table 1 below capable of specifically amplifying the env vector. […] 100 ng of genomic DNA, 1X reaction buffer, 0.25 mM dNTP, 0.2 pmol forward primer, 0.2 pmol reverse primer, and 0.2 unit Taq polymerase were added to a PCR reaction tube, and sterilized distilled water was added to make the final volume of 20 ? . Then, After PCR was performed under the conditions shown in Table 1 below, the amplified DNA was loaded on a 1% agarose gel to confirm the PCR amplification product, thereby confirming the infectivity of the virus and whether the recombination occurred. […]

## sRRVe-TK: MuLV env vector, 646 bp MCMV promoter, TK gene (SEQ. ID. NO: 33)
U87MG cells; MuLV env-based vectors, FIG. 15
  thymidine kinase (TK) protein expression: continuously expressed
U-87MG cells [1]
  cell death upon prodrug treatment: cell death is induced

## spRRVe-TK: GaLV env vector, 646 bp MCMV promoter, TK gene (SEQ. ID. NO: 27)
U-87MG cells [2]
  cell death upon prodrug treatment: cell death is induced
U87MG cells; GaLV env-based vectors with sRRVgp-sEF1α-hopt-yCD, 0.1 MOI, p1-p10, FIG. 10
  thymidine kinase (TK) protein expression: continuously expressed

## spRRVe-yCD: GaLV env vector with full-length MCMV promoter and yCD gene (SEQ. ID. NO: 25)
[3]; day 3 of initial infection and passages 1 to 3
  virus proliferation and infection (PCR products detected): virus proliferation and infection progressed
[3]; full-length MCMV promoter, 2E7 gc, GaLV 1624F/MFGSacIR primers, up to passage 3
  passage from which PCR products smaller than the expected amplification product were detected (recombination): 2 passage
